Assay results as given in ChEMBL document CHEMBL5620374, “Synthesis and bioevaluation of novel stilbene-based derivatives as tubulin/HDAC dual-target inhibitors with potent antitumor activities in vitro and in vivo” (Eur J Med Chem, 2023).
Calls of active or inactive are those of the source. No cut-off for these calls is given here.

Tests used:
K562 [1] = assay: Induction of ROS generation in human K562 cells assessed as DCF-positive cells at 2 nM incubated for 48 hrs by DCF-DA probe based flow cytometry (reference value: 3.87 %); format: functional
K562 [2] = assay: Induction of cell cycle arrest at G1 phase in human K562 cells at 2 nM incubated for 48 hrs by PI staining based flow cytometry (reference value: 62.08 +/- 0.40 %); format: functional
K562 [3] = assay: Induction of apoptosis in human K562 cells assessed as nuclear fragmentation at 2 to 8 nM incubated for 48 hrs by Hoechst 33342 staining based analysis; format: functional, cell-based; settings: dose 2-8 nM
H22 [4] = assay: Antitumor activity against mouse H22 cells allografted in ICR mouse assessed as decrease in tumor volume at 10 to 20 mg/kg, iv qd for 17 days consecutively; format: functional, organism-based; settings: dose 10-20 mg/kg, time 17.0 day
H22 [5] = assay: Antitumor activity against mouse H22 cells allografted in ICR mouse assessed as decrease in tumor weight at 10 to 20 mg/kg, iv qd for 17 days consecutively; format: functional, organism-based; settings: dose 10-20 mg/kg, time 17.0 day
K562 [6] = assay: Induction of ROS generation in human K562 cells assessed as DCF-positive cells at 8 nM incubated for 48 hrs by DCF-DA probe based flow cytometry (reference value: 3.87 %); format: functional
Histone deacetylase 1 [7] = target: T1, Histone deacetylase 1 (Homo sapiens, UniProt Q13547); assay: Inhibition of HDAC1 in human K562 cells assessed as increase in Acetyl-histone H3 level at 0.01 to 1 uM incubated for 24 hrs by Western blot analysis; format: cell-based; settings: dose 0.01-1 µM
T1 sequence (Q13547 whole entry): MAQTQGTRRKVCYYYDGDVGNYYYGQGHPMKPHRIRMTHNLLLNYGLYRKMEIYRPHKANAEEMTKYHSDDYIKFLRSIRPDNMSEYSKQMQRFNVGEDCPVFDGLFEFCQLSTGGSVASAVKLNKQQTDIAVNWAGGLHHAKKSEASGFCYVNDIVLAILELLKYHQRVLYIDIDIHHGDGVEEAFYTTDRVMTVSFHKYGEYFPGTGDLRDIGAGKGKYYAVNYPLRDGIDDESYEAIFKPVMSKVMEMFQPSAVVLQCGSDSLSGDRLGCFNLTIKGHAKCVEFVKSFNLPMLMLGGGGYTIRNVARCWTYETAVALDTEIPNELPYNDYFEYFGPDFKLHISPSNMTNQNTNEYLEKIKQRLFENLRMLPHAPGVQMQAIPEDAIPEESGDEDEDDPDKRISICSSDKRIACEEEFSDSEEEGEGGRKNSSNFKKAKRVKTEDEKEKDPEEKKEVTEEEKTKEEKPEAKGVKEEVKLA

K562 [8] = assay: Induction of cell cycle arrest at S phase in human K562 cells at 2 nM incubated for 48 hrs by PI staining based flow cytometry (reference value: 22.56 +/- 0.47 %); format: functional
K562 [9] = assay: Induction of apoptosis in human K562 cells assessed as increase in Bad level incubated for 24 hrs by Western blot analysis; format: functional, cell-based; settings: dose 2-8 nM
K562 [10] = assay: Induction of cell cycle arrest at G2 phase in human K562 cells at 2 nM incubated for 48 hrs by PI staining based flow cytometry (Rvb =15.36 +/- 0.46 %); format: functional
K562 [11] = assay: Effect on cell cycle in human K562 cells assessed as decrease in cyclin B1 level incubated for 24 hrs by Western blot analysis; format: functional, cell-based; settings: dose 2-8 nM
K562 [12] = assay: Induction of cell cycle arrest at G2 phase in human K562 cells at 4 nM incubated for 48 hrs by PI staining based flow cytometry (Rvb =15.36 +/- 0.46 %); format: functional
Histone deacetylase 1 [13] = target: T1, Histone deacetylase 1; assay: Inhibition of HDAC1 derived from human HeLa cell extract using Ac-Leu-Gly-Lys (Ac)-AMC as substrate by fluorescence based assay; format: cell-free
Histone deacetylase 3 [14] = target: T2, Histone deacetylase 3 (Homo sapiens, UniProt O15379); assay: Inhibition of HDAC3 derived from human HeLa cell extract using Ac-Leu-Gly-Lys (Ac)-AMC as substrate by fluorescence based assay; format: cell-free
T2 sequence (O15379 whole entry): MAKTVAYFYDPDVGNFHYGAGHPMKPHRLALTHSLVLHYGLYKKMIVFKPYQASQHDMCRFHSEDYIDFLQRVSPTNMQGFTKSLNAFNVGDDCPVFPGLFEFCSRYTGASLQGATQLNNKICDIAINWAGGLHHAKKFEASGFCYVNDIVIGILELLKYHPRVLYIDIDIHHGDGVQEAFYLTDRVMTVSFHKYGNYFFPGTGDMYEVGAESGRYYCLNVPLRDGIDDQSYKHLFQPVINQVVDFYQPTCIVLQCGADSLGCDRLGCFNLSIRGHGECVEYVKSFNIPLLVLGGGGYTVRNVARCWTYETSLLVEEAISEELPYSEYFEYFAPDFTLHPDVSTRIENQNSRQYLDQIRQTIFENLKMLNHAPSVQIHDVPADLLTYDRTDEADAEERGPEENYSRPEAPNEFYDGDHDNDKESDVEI

K562 [15] = assay: Induction of ROS generation in human K562 cells assessed as DCF-positive cells at 4 nM incubated for 48 hrs by DCF-DA probe based flow cytometry (reference value: 3.87 %); format: functional
K562 [16] = assay: Induction of apoptosis in human K562 cells assessed as decrease in Bcl-2 level incubated for 24 hrs by Western blot analysis; format: functional, cell-based; settings: dose 2-8 nM
HUVEC [17] = assay: Inhibition of tube formation in HUVEC cells at 8 nM incubated for 6 hrs by inverted microscopy; format: functional, cell-based; settings: Homo sapiens
K562 [18] = assay: Induction of apoptosis in human K562 cells assessed as viable cells at 4 nM incubated for 48 hrs by Annexin V/PI staining based flow cytometry (reference value: 92.52 +/- 0.34 %); format: functional; settings: read-out: Activity
K562 [19] = assay: Induction of cell cycle arrest at S phase in human K562 cells at 8 nM incubated for 48 hrs by PI staining based flow cytometry (reference value: 22.56 +/- 0.47 %); format: functional
K562 [20] = assay: Inhibition of mitochondrial membrane potential in human K562 cells assessed as green fluorescence intensity at 4 nM incubated for 48 hrs by JC-1 staining based flow cytometry (reference value: 6.63 +/- 0.27 %); format: functional
MCF7 = assay: cells; settings: Homo sapiens, MCF7, 72 h
Description: Antiproliferative activity against human MCF7 cells incubated for 72 hrs by MTT assay

[21] = Toxicity in ICR mouse allografted with mouse H22 cells assessed as toxic sign in liver at 10 to 20 mg/kg, iv qd for 17 days consecutively by H and E staining based analysis; format: organism-based; settings: in vivo, dose 10-20 mg/kg, time 17 day
K562 [22] = assay: Antiproliferative activity against human K562 cells incubated for 72 hrs by MTT assay; format: functional, cell-based; settings: K562, 72 h
HUVEC [23] = assay: Inhibition of tube formation in HUVEC cells incubated for 24 hrs by inverted microscopy; format: functional, cell-based; settings: Homo sapiens
K562 [24] = assay: Effect on cell cycle in human K562 cells assessed as decrease in Cdc25c level incubated for 24 hrs by Western blot analysis; format: functional, cell-based; settings: dose 2-8 nM
K562 [25] = assay: Inhibition of mitochondrial membrane potential in human K562 cells assessed as red fluorescence intensity at 2 nM incubated for 48 hrs by JC-1 staining based flow cytometry (reference value: 93.36 +/- 0.21 %); format: functional
Histone deacetylase 2 = Histone deacetylase 2 (Homo sapiens, UniProt Q92769); assay: Inhibition of HDAC2 derived from human HeLa cell extract using Ac-Leu-Gly-Lys (Ac)-AMC as substrate by fluorescence based assay
Chain of Histone deacetylase 2 (Q92769 whole entry): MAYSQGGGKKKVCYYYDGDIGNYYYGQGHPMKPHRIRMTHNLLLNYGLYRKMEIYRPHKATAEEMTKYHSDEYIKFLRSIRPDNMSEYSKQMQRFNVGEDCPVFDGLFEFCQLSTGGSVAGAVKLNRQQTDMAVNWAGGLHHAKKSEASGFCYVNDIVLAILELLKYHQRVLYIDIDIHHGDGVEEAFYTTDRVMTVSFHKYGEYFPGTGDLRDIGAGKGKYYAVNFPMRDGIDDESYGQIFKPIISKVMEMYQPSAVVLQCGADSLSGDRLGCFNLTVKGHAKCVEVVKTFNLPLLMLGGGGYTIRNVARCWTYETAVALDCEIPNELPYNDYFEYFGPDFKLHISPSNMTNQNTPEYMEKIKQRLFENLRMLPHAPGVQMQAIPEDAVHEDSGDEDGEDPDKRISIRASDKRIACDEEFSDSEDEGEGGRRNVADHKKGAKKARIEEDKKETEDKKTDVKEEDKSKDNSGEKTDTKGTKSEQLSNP

A2780 = assay: cells; settings: Homo sapiens, A2780, 72 h
Description: Antiproliferative activity against human A2780 cells incubated for 72 hrs by MTT assay

B16-F10 = assay: Antiproliferative activity against mouse B16-F10 cells incubated for 72 hrs by MTT assay; format: functional, cell-based; settings: B16-F10, 72 h
K562 [26] = assay: Induction of apoptosis in human K562 cells assessed as chromatin aggregation at 2 to 8 nM incubated for 48 hrs by Hoechst 33342 staining based analysis; format: functional, cell-based; settings: dose 2-8 nM
[27] = Toxicity in ICR mouse allografted with mouse H22 cells assessed as toxic sign in lung at 10 to 20 mg/kg, iv qd for 17 days consecutively by H and E staining based analysis; format: organism-based; settings: in vivo, dose 10-20 mg/kg, time 17 day
K562 [28] = assay: Induction of cell cycle arrest at G1 phase in human K562 cells at 8 nM incubated for 48 hrs by PI staining based flow cytometry (reference value: 62.08 +/- 0.40 %); format: functional
K562 [29] = assay: Induction of apoptosis in human K562 cells assessed as early apoptotic cells at 8 nM incubated for 48 hrs by Annexin V/PI staining based flow cytometry (reference value: 1.55 +/- 0.21 %); format: functional
K562 [30] = assay: Induction of apoptosis in human K562 cells assessed as necrotic cells at 2 nM incubated for 48 hrs by Annexin V/PI staining based flow cytometry (reference value: 2.56 +/- 0.22 %); format: functional
Histone deacetylase 3 [31] = target: T2, Histone deacetylase 3; assay: Inhibition of HDAC3 in human K562 cells assessed as increase in Acetyl-histone H3 level at 0.01 to 1 uM incubated for 24 hrs by Western blot analysis; format: cell-based; settings: dose 0.01-1 µM
MDA-MB-231 = assay: cells; settings: Homo sapiens, MDA-MB-231, 72 h
Description: Antiproliferative activity against human MDA-MB-231 cells incubated for 72 hrs by MTT assay

K562 [32] = assay: Induction of apoptosis in human K562 cells assessed as late apoptotic cells at 4 nM incubated for 48 hrs by Annexin V/PI staining based flow cytometry (reference value: 3.37 +/- 0.21 %); format: functional

## C=C(c1ccc(OC)c(OC(F)C(=O)NO)c1)c1cc(C)nc2ccccc12 (configuration not stated)
K562 [1]
  Activity: 16.44%
K562 [2]
  Activity: 56.87%
K562 [3]
  Activity: Active
H22 [4]
  Activity: Active
H22 [5]
  Activity: Active
K562 [6]
  Activity: 42.67%
Histone deacetylase 1 [7]
  inhibition: Active
K562 [8]
  Activity: 22.65%
K562 [9]
  Activity: Dose-Dependent Effect
K562 [10]
  Activity: 20.48%
K562 [11]
  Activity: Dose-Dependent Effect
K562 [12]
  Activity: 23.38%
Histone deacetylase 1 [13]
  IC50: 403 nM
Histone deacetylase 3 [14]
  IC50: 3550 nM
K562 [15]
  Activity: 29.72%
K562 [16]
  Activity: Dose-Dependent Effect
HUVEC [17]
  inhibition: Active
K562 [18]
  viability at 0.004 µM: 66.6%
K562 [19]
  Activity: 30.41%
K562 [20]
  Flu intensity: 31.75%
MCF7
  IC50: 36 nM
[21]
  Activity: Non-Toxic
K562 [22]
  IC50: 3 nM
HUVEC [23]
  IC50: 192 nM
K562 [24]
  Activity: Dose-Dependent Effect
K562 [25]
  Flu intensity: 82.36%
Histone deacetylase 2
  IC50: 591 nM
A2780
  IC50: 5 nM
B16-F10
  IC50: 5 nM
K562 [26]
  Activity: Active
[27]
  Activity: Non-Toxic
K562 [28]
  Activity: 41.72%
K562 [29]
  Activity: 18.11%
K562 [30]
  Activity: 0.36%
Histone deacetylase 3 [31]
  inhibition: Active
MDA-MB-231
  IC50: 11 nM
K562 [32]
  Activity: 8.7%
